Experiment: gradient 5% acetonitrile 3 min, to 50% in 2 min, to 85% in 15 min, held 3 min, 100 µL/min
Conditions: column: Zorbax Extend-C18 2.1 x 50 mm; eluents: water / acetonitrile, 0.1% formic acid
Method in brief: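 Retention times come from adduct peaks that were picked computationally and then checked by hand. The standards, pure and pooled in mixtures of ~100 molecules, were run on a Zorbax Extend-C18 column (2.1 × 50 mm, 1.8 μm) at 100 μL/min with water and acetonitrile, each with 0.1% formic acid. Detection was by quadrupole time-of-flight mass spectrometry in positive and negative ionization mode, with a dead volume of 40 μL and a dwell volume of 900 μL.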

Row | SMILES | RP-LC retention time [s]
1 | CCc1ccc(NC(=O)Nc2ccc3nc(N4CCN(C)CC4)cc(C)c3c2)cc1 | 609
2 | CCOc1ccc2c(n1)CCN(C(=O)NCC(C)C)C2 | 740
3 | CC(C)NC(=O)c1cc(C(C)C)[nH]n1 | 660
4 | COc1ccc(NC(=O)N2CCN(Cc3nc4ccc(Cl)cc4o3)CC2)cc1 | 713
5 | Cc1ccccc1-c1cc2c(=O)n(Cc3nc(-c4ccc5c(c4)OCO5)no3)ccn2n1 | 1050
6 | COc1ccc(OC)c(S(=O)(=O)N2CCc3c(c(-c4nnc(-c5ccc(F)cc5)o4)nn3C)C2)c1 | 900
7 | Cc1cc(NC(=O)N(C)CC2CCOCC2)ccc1Br | 819
8 | CC1CN(C(=O)c2ccc(C#N)cc2)c2ccccc2O1 (stereo not drawn) | 914
9 | COc1ccc(N2CC(c3noc(-c4cccc(Cl)c4)n3)CC2=O)cc1OC (stereo not drawn) | 944
10 | O=C(Nc1ccc(C(=O)N2CCOCC2)c(N2CCCCCC2)c1)C1CC1 | 743
11 | Cc1noc(C2CN(C(=O)Nc3cc(F)cc(F)c3)CC23CCOCC3)n1 (stereo not drawn) | 726
12 | CCNC(=O)c1nc(C(=O)NC2CCCCC2)cs1 | 783
13 | CCS(=O)(=O)N1CC(=O)N(c2ccc(Cl)cc2)C(C)(C(=O)NC2CCCCCCC2)C1 (stereo not drawn) | 993
14 | Cc1ccccc1-c1noc(Cn2c(=O)n(-c3ccccc3C)c(=O)c3sccc32)n1 | 1050
15 | Cc1ccc(Cn2nccc2NC(=O)c2cc(=O)c3ccccc3o2)cc1 | 816
16 | O=C(Cn1cccc(-c2nc(-c3ccc(F)cc3)no2)c1=O)N1CCCC1 | 727
17 | O=C1CCN(C(=O)c2ccsc2)CCCCCCN1 | 652
18 | C[C@](O)(COc1ccc(C#N)cc1)C(=O)Nc1ccc(C#N)c(C(F)(F)F)c1 | 972
19 | O=C(CSc1nccn1-c1ccc([N+](=O)[O-])cc1)NC1CCCCC1 | 730
20 | COc1ccc2c(c1)-c1nc(NC(=O)c3cccc(Br)c3)sc1CC2 | 1230
21 | COc1ccc(C(=O)N2CCC3(CC2)N=C(c2ccc(Br)cc2)C(=O)N3)cc1 | 889
22 | CC(=O)Nc1ccc(CCc2nc3ccc(C(=O)NC(C)C)cc3[nH]2)cc1 | 574
23 | CCNC(=O)N(CC(=O)N1CCc2sccc2C1COc1ccc(F)cc1)CC1CCCO1 (stereo not drawn) | 856

Row | SMILES | RP-LC retention time [s]
24 | CC(C)CCN(Cc1ccco1)C(=O)Cn1nc2n(c1=O)CCC(N)CC2 (stereo not drawn) | 633
25 | O=C(NCCn1c(CCc2ccccc2)nc2cccnc21)c1cccs1 | 687
26 | COc1ccc(-c2ccnc3nc(C(C)C)nn23)c(F)c1 | 840
27 | CC(C)CCn1c(CCCC(=O)Nc2ccncc2)nc2cccnc21 | 601
28 | COc1cc(C(=O)Nc2sc3c(c2C(N)=O)CC(C)CC3)cc(OC)c1OC (stereo not drawn) | 1020
29 | Cc1onc(-c2ccccc2Cl)c1C(=O)Nc1nc(-c2ccc([N+](=O)[O-])cc2)cs1 | 1100
30 | COc1ccc(NC(=O)C2CCN(S(=O)(=O)c3ccc4c(c3)NC(=O)CO4)CC2)cc1OC | 715
31 | Cc1ccc(-c2nc3cnccn3c2Nc2ccc(F)cc2)cc1 | 904
32 | O=C(NC1CCCC1)c1nnn(-c2ccc(F)cc2)c1-c1ccncc1 | 788
33 | Cc1ccc(N2CC(c3noc(-c4ccc(C#N)cc4)n3)CC2=O)cc1 (stereo not drawn) | 947
34 | CCOC(=O)c1c(S(=O)(=O)N2CCC(C(=O)Nc3cccc(OC)c3)CC2)c(C)n(C)c1C | 834
35 | O=C(NCCN1CCOCC1)c1cccc(Nc2c(-c3ccc(Cl)cc3)nc3cnccn23)c1 | 599
36 | CC1=C(c2ccccc2)S(=O)(=O)N=C1N1CCCN(C(=O)Nc2ccccc2)CC1 | 669
37 | Cc1ccc(-c2cn3ccn(-c4cccc(F)c4)c(=O)c3n2)c(C)c1 | 900
38 | CCOc1ccccc1NC(=O)N1CCCC1c1cc(C)no1 (stereo not drawn) | 854
39 | COc1ccc2[nH]cc(CCNC(=O)C(C)n3c4ccccc4c4cnn(C)c(=O)c43)c2c1 (stereo not drawn) | 813
40 | O=S(=O)(Cc1ccccc1F)N1CCC(c2noc(-c3ccncc3)n2)C1 (stereo not drawn) | 839
41 | CCCn1cc(-c2ccncc2)cc1C(=O)NC1CCN(Cc2ccccc2)CC1 | 561
42 | Cc1nc(N2CCOCC2)c2c(C(=O)N3CCN(c4cccc(C)c4C)CC3)c(C)oc2n1 | 1000
43 | COc1ccc(Cl)cc1NC(=O)C1(c2cccs2)CCCC1 | 1280
44 | COc1ccc(C(=O)N2CCC3(C2)C(=O)Nc2ccccc23)cc1OC (stereo not drawn) | 657
45 | CCNC(=O)N1CC(C)Oc2ccccc21 (stereo not drawn) | 762
46 | O=S(=O)(C1CC1)N1CCCCC1c1nncn1CC1CC1 (stereo not drawn) | 578

Row | SMILES | RP-LC retention time [s]
47 | Cc1nc(C)c(C(=O)N2CC(F)(F)C[C@H]2COc2ccc3c(c2)CCC3)s1 | 1080
48 | CCc1ccccc1NC(=O)NCC(c1cccnc1)c1cn(C)c2ccccc12 (stereo not drawn) | 711
49 | CCC(CC)CN1CCC(n2c(C)cnc2-c2ccncc2)C1 (stereo not drawn) | 542
50 | CCN(CCNC(=O)c1cccc2c1SCCC2=O)Cc1ccccc1 | 627
51 | CCCNC(=O)CCc1nc2ccccc2n(CC(=O)NCc2ccc(C)cc2)c1=O | 786
52 | O=C(Nc1nc(-c2ccc(F)cc2)cs1)c1c(-c2ccc(F)cc2)nc2n1CCS2(=O)=O | 1050
53 | Cn1cc(CN2CCC(C(=O)N3CCCC3)CC2)c2cc(Cl)ccc21 | 631
54 | COC(=O)c1ccc(NC(=O)N(C)CCc2noc(C3CCCCC3)n2)cc1 | 906
55 | O=C(O)c1cc(-c2cccs2)[nH]c(=O)n1 | 551
56 | Cc1[nH]c(=O)[nH]c(=O)c1CCC(=O)N1CCC(c2nc3ccccc3s2)CC1 | 592
57 | COc1ccc(Br)cc1CNC(=O)c1sc2ncccc2c1-n1cccc1 | 1130
58 | CCc1ccc(C2=C(C)C(N3CCCN(C(=O)NCCOC)CC3)=NS2(=O)=O)cc1 | 731
59 | O=C(NCc1ccco1)C(=O)c1cccn1Cc1ccc(F)cc1 | 962
60 | Cc1oc(C2CCN(C(=O)NCc3cccc(F)c3)CC2)nc1C(=O)N1CCOCC1 | 903
61 | CC(C)Oc1ccc(CNC(=O)CCc2c(-c3ccc(Br)cc3)nc3ccccn23)cc1 | 744
62 | CC(C)CN(CCCNC(=O)C1CCN(c2cnn(C)c(=O)c2)C1)CC(C)C (stereo not drawn) | 589
63 | CC1CCC2(CC1)NC(=O)N(CC(=O)Nc1ccccc1Cl)C2=O (stereo not drawn) | 858
64 | O=C(Cc1ccsc1)Nc1ccc2c(c1)CCC(=O)N2 | 662
65 | COC(=O)c1c(NCc2ccc(SC)cc2)c2cccc(Cl)c2[nH]c1=O | 853
66 | CC(C)(C)NC(=O)CN1C(=O)C2CCCCN2c2ccc(S(=O)(=O)N3CCCCC3)cc21 (stereo not drawn) | 981
67 | O=C(NCCc1ccsc1)Nc1ccccc1C(F)(F)F | 842
68 | COCCN1C(=O)c2ccccc2C(C(=O)NCc2ccccc2OC)C1c1ccc(F)cc1 (stereo not drawn) | 924

Reference: the METLIN SMRT retention time set (Domingo-Almenara et al. 2019)
